Assays:
S. aureus [1] = experiment: Blood culture time to positivity (flip time), bead rescue vs no-rescue control; format: cell-based; settings: for Flip time: Cefepime 164 mg/L blood; for Difference (Days) compared to BE / Flip time in Days: Vancomycin 500 mg/L blood, antibiotic-labelled line = BC control without beads; for Flip time in Days: bead rescue with named bead type; for Bead Rescue Flip time / Control Flip time in Days: antibiotic 500 mg/L blood
Experimental: An overnight culture of test organism was prepared in blood/broth medium (50:50 blood:broth medium from a BioMerieux SA culture bottle).
Ten-fold serial dilutions of overnight culture was prepared in blood/broth as required.
Antibiotic (abx) was added to whole human blood (in citrate-phosphate-dextrose, CPD, an anticoagulant) at required level.
Whole blood was used as the no-antibiotic control.
Test dilution(s) of organism was added to blood+antibiotic or blood only at 10 μL per mL of blood (sufficient prepared for experiment requirements). 100 μL plate count sample was taken (TO sample).
The inoculated samples were incubated at 37° C. (static) for 2-hour. 100 μL plate count sample was taken (T2 sample).
For the control, 5 mL of spiked blood+abx or blood only was added to blood culture bottles (BioMerieux SA culture bottle) using a vial adapter (West Pharmaceutical Services, Inc. PA, US) and incubated in the automated blood culture cabinet (adapter removed).
For the ‘rescue’ test, 5 mL of spiked blood+abx or blood only was treated with Momentum Capture Beads (Streptavidin-coated, −300 nm beads, Bio estapor, Merk Cat #BE-M 08/0.3) as below: • Momentum Capture Beads diluted in Detergent-free Microbial Binding Buffer (DMBB—Tris+NaCl)—50 μL beads:700 μL DMBB per clean-up • 750 μL of diluted beads added to 50 mL conical centrifuge tube • 5 mL of broth medium added to tube • 5 mL of spiked blood+abx or blood only added to tube • Incubate on ITL TherMix (Integrated Technologies Ltd. Kent, UK), 32.5° C./30 min/1000 rpm—ramped speed protocol • Magnetise on V&P magnet (V&P scientific Inc, CA, US) for 5 min then remove supernatant • Resuspend beads in 1 mL Detergent-free Wash Buffer (DWB—Tris+NaCl) off magnet and transfer to 2 mL Eppendorf flip-top tube on DynaMag-2 magnet (Thermo Fisher Scientific, Life Technologies Ltd. Paisley, UK) • Magnetise for 5 min then remove supernatant • Resuspend beads in 1 mL DWB off magnet then replace on DynaMag-2 magnet • Magnetise for 5 min then remove supernatant • Resuspend beads in 1 mL DWB, add to a fresh, unused blood culture bottle (BioMerieux SA culture bottle) containing standard blood culture growth medium using a vial adapter, and start incubation (adapter removed). • Blood culture bottles are incubated in the automated blood culture cabinet (BacT/ALERT BioMerieux) which records time to positivity. The “Flip” time is when a bottle turns positive as determined by the automated blood culture cabinet. • “Flip” time of each bottle is recorded. • Plate counts (Total Viable Count TVC) are recorded.
(§1) Day 1: Prepare overnight culture of test organism in blood/broth medium (50:50 blood:broth) and incubate at 37° C. in a shaking incubator.
Day 2: Prepare ten-fold serial dilution of overnight culture in blood/broth as required • Antibiotic added to whole blood (defibrinated horse blood) at required level • Whole blood as no-antibiotic control • Test dilution(s) of organism added to blood+antibiotic or blood only at 10 μL per mL of blood (sufficient prepared for experiment requirements) • 100 μL plate count sample taken (TO sample) • 2-hour incubation at 37° C. (static), to mimic organism exposure to antimicrobials in the patient • 100 μL plate count sample taken (T2 sample) • 5 mL of spiked blood+abx or blood only added to blood culture bottle (using vial adapter) and incubation started (adapter removed) • 5 mL of spiked blood+abx or blood only (from same source) treated with Momentum Capture Beads as below: • 1. Momentum Capture Beads diluted in Detergent-free Microbial Binding Buffer (DMBB)—50 μL beads:700 μL DMBB per clean-up • 2. 750 μL of diluted beads added to 50 mL conical centrifuge tube • 3. 5 mL of transfer medium added to tube • 4. 5 mL of spiked blood+abx or blood only added to tube • 5.

E. coli [2] = experiment: as above; format: cell-based; settings: Cefepime 164 mg/L blood; for Flip time: Bead rescue; for Flip time in Days: Control (FA plus bottle)
Experimental: as §1
Day 2: Prepare ten-fold serial dilution of overnight culture in blood/broth as required and incubate at 37° C. for 2 h for outgrowth.
Add 5 mL of spiked blood+beads (set 1) and 5 mL of spiked blood/Abx+beads (set 3) to blood culture bottles (BioMerieux SA culture bottle) using a vial adapter (West Pharmaceutical Services, Inc. PA, US).
Remove the adaptor and incubate the blood culture bottles in the automated blood culture cabinet (BacT/ALERT BioMerieux) for up to 5 days.
Record the “Flip” time of each bottle or bottle result at the end of 5 days incubation. The “Flip” time is when a bottle turns positive as determined by the automated blood culture cabinet, which records time to positivity.
Day 1: Prepare overnight culture of test organism in blood/broth medium (50:50 blood:broth) and incubate at 37° C. (or 30° C. for C. neoformans) in a shaking incubator.
(or 30° C. for C. neoformans) for 2 h for outgrowth. • Antibiotic added to whole blood (defibrinated horse blood) at required level • Whole blood as no-antibiotic control • Test dilution(s) of organism added to blood+antibiotic or blood only at 10 μL per mL of blood (sufficient prepared for experiment requirements) • 100 μL plate count sample taken (TO sample) • 2-hour incubation (static) at 37° C. (or 30° C. for C. neoformans) • 100 μL plate count sample taken (T2 sample) • 5 mL of spiked blood+abx or blood only added to blood culture bottle (using vial adapter) and incubation started (adapter removed) • 5 mL of spiked blood+abx or blood only (from same source) treated with Momentum Capture Beads as below: • 1. Capture Beads diluted in the relevant Capture Reagent—50 μL beads:700 μL capture reagent per clean-up • 2. 750 μL of diluted beads added to 50 mL conical centrifuge tube • 3. 5 mL of transfer medium added to tube • 4. 5 mL of spiked blood+abx or blood only added to tube • 5. […] Magnetise on V&P magnet for 10 min then remove supernatant • 7. Resuspend beads in 1 mL Detergent-free Wash Buffer (DWB) off magnet and transfer to 2 mL Eppendorf flip-top tube on DynaMag-2 magnet • 8. Magnetise for 3 min then remove supernatant • 9. Resuspend beads in 1 mL Detergent-free Wash Buffer (DWB) off magnet then replace on DynaMag-2 magnet • 10. Magnetise for 3 min then remove supernatant • 11. Resuspend beads in 1 mL DWB, add to new blood culture bottle (using vial adapter) and start incubation (adapter removed)
Momentum Capture Beads diluted in the relevant Capture Reagent—50 μL beads:700 μL capture reagent per clean-up • 2. 750 μL of diluted beads added to 50 mL conical centrifuge tube • 3. 5 mL of transfer medium added to tube • 4. 5 mL of spiked blood+abx or blood only added to tube • 5. […] Magnetise on V&P magnet for 10 min then remove supernatant • 7. Resuspend beads in 1 mL Detergent-free Wash Buffer (DWB) off magnet and transfer to 2 mL Eppendorf flip-top tube on DynaMag-2 magnet • 8. Magnetise for 3 min then remove supernatant • 9. Resuspend beads in 1 mL Detergent-free Wash Buffer (DWB) off magnet then replace on DynaMag-2 magnet • 10. Magnetise for 3 min then remove supernatant • 11. Resuspend beads in 1 mL DWB, add to an unused blood culture bottle (BioMerieux FA+culture bottle) using vial adapter and start incubation (adapter removed)

E. coli [3] = settings: cited from earlier work
Klebsiella pneumoniae = settings: K. pneumoniae; cited from earlier work
Pseudomonas aeruginosa = settings: P. aeruginosa; cited from earlier work
S. aureus [4] = settings: cited from earlier work
S. aureus [5] = experiment: Antibiotic breakpoint experiment (plate counts at 0, 2.5 and 5 hours); format: cell-based; settings: two different strains of S. aureus, every time point
Experimental: To determine a starting point in terms of antibiotic concentration and microbial load for subsequent experiments. Antibiotic concentration ranges were tested to find appropriate breakpoints for use in experiments. A range of antibiotic concentrations were tested against a given microbial load to determine the concentration at which growth was inhibited but the microorganisms were not killed. This was determined by plate counts at intervals of 0, 2.5 and 5 hours.
• 1. Day 1: Prepare an overnight culture of the test organism in 3 mL of blood/broth solution (1.5 mL defibrinated Horse blood: 1.5 mL transfer Medium). • 2. Day 2: Dissolve antibiotic in required diluent to prepare a suitable stock solution and prepare a dilution series in Nuclease-free Water to cover a final concentration range of 100 to 0.001 and Omg/L. • 3. Dilute the overnight culture of the microorganism to the required point in pre-warmed blood/broth solution. This may require determining for each organism/antibiotic combination, but as a starting dilution 10-4 will be used (giving a final concentration in the sample of 10-5). • 4. Aliquot 980 μL of pre-warmed defibrinated horse blood into the required number of 2 mL flip-top tube. • 5. […]
The concentrations determined by this protocol were used in the following examples unless stated otherwise. […]

SMILES: CO/N=C(\C(=O)N[C@@H]1C(=O)N2C(C(=O)[O-])=C(C[N+]3(C)CCCC3)CS[C@H]12)c1csc(N)n1 [Cefepime]
- Flip time (S. aureus [1]; Bead rescue, 125000 cfu/5 mL blood): 0.46 days
- Flip time (S. aureus [1]; Bead rescue, 750000 cfu/5 mL blood): 0.39 days
- Flip time (S. aureus [1]; Control (FA plus bottle), 125000 cfu/5 mL blood): 2.69 days
- Flip time (S. aureus [1]; Control (FA plus bottle), 750000 cfu/5 mL blood): 2.49 days
- Flip time (E. coli [2]; 125000 cfu/5 mL blood): 0.47 days
- Flip time (E. coli [2]; 1250000 cfu/5 mL blood): 0.38 days
- Flip time in Days (E. coli [2]; 125000 cfu/5 mL blood): Neg
- Flip time in Days (E. coli [2]; 1250000 cfu/5 mL blood): Neg
- MIC (E. coli [3]): ≤1 mg/L
- MIC (Klebsiella pneumoniae): ≤1 mg/L
- MIC (Pseudomonas aeruginosa): ≤1 mg/L
- MIC (S. aureus [4]): ≤4 mg/L

SMILES: CN[C@H](CC(C)C)C(=O)N[C@H]1C(=O)N[C@@H](CC(N)=O)C(=O)N[C@H]2C(=O)N[C@H]3C(=O)N[C@H](C(=O)N[C@H](C(=O)O)c4cc(O)cc(O)c4-c4cc3ccc4O)[C@H](O)c3ccc(c(Cl)c3)Oc3cc2cc(c3O[C@@H]2O[C@H](CO)[C@@H](O)[C@H](O)[C@H]2O[C@H]2C[C@](C)(N)[C@H](O)[C@H](C)O2)Oc2ccc(cc2Cl)[C@H]1O [Vancomycin]
- No-rescue blood culture control result (S. aureus [1]; Example 23, S. aureus in blood containing 500 mg/L Vancomycin): negative after 5 days
- No-rescue blood culture controls result (S. aureus [1]; Example 24, S. aureus in blood containing 500 mg/L Vancomycin): negative
- Difference (Days) compared to BE (S. aureus [1]; 20000 Cfu/mL): Negative
- Flip time in Days (S. aureus [1]; 20000 Cfu/mL): Negative
- Difference (Days) compared to BE (S. aureus [1]; 35760 Cfu/mL): Negative
- Flip time in Days (S. aureus [1]; 35760 Cfu/mL): Negative
- Difference (Days) compared to BE (S. aureus [1]; 200000 Cfu/mL): Negative
- Flip time in Days (S. aureus [1]; 200000 Cfu/mL): Negative
- Difference (Days) compared to BE (S. aureus [1]; 357600 Cfu/mL): Negative
- Flip time in Days (S. aureus [1]; 357600 Cfu/mL): Negative
- Bead Rescue Flip time (S. aureus [1]; 1000 cfu/5 mL Blood): 1.15 days
- Control Flip time in Days (S. aureus [1]; 1000 cfu/5 mL Blood): Neg
- Bead Rescue Flip time (S. aureus [1]; 100000 cfu/5 mL Blood): 0.66 days
- Control Flip time in Days (S. aureus [1]; 100000 cfu/5 mL Blood): Neg
- Bead Rescue Flip time (S. aureus [1]; 1000000 cfu/5 mL Blood): 0.61 days
- Control Flip time in Days (S. aureus [1]; 1000000 cfu/5 mL Blood): Neg
- Growth in antibiotic dilution series (breakpoint experiment) (S. aureus [5]): grew in every dilution

Source: US20240210394A1, “MICROORGANISM CAPTURE FROM ANTIMICROBIAL-CONTAINING SOLUTION” (MOMENTUM BIOSCIENCE LIMITED, priority 2019, published 2024)
